Reference: the supplement of paper PMC10627819

Columns and labels:
Assay in all cases: Bliss interaction score (quartile over a dose matrix) (fitness difference); higher = more antagonism (negative = synergy)
[1] = test system: B. subtilis 168
Summary of the method: (§1)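 The Bliss score was calculated by subtracting the expected fitness, the product of single-drug values, from the observed fitness. OD595 at entry into stationary phase, over the plate's robust no-drug mean and capped at 1, served as the fitness readout. Single-drug values were inferred from combination data, and scores are summarised by quartiles across technical, biological and donor/recipient replicates.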

[2] = test system: S. aureus DSM 20231
Summary of the method: as §1

[3] = test system: S. aureus Newman
Summary of the method: as §1

[4] = test system: S. pneumoniae D39V
Summary of the method: as §1
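Note: first quartile when negative (synergy) and third quartile when positive (antagonism).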

SMILES: C[C@@H](O)[C@H]1C(=O)N2C(C(=O)O)=C(SCCNC=N)C[C@H]12 [Imipenem] + COc1cc(Cc2cnc(N)nc2N)cc(OC)c1OC [Trimethoprim]
- Bliss interaction score [1]: -0.127
- Bliss interaction score [2]: -0.0457
- Bliss interaction score [3]: -0.0308
- Bliss interaction score [4]: 0.153

SMILES: C[C@@H](O)[C@H]1C(=O)N2C(C(=O)O)=C(SCCNC=N)C[C@H]12 [Imipenem] + CO[C@@]12[C@H](COC(N)=O)C3=C(C(=O)C(C)=C(N)C3=O)N1C[C@@H]1N[C@@H]12 [MitomycinC]
- Bliss interaction score [1]: -0.0977
- Bliss interaction score [2]: -0.03
- Bliss interaction score [3]: 0.0577
- Bliss interaction score [4]: -0.0563

SMILES: CC(=O)O[C@H]1C[C@@]2(C)[C@@H](C[C@@H](O)[C@H]3[C@@]4(C)CC[C@@H](O)[C@@H](C)[C@@H]4CC[C@@]32C)/C1=C(\CCC=C(C)C)C(=O)O [Fusidic acid] + O=C1CN(/N=C/c2ccc([N+](=O)[O-])o2)C(=O)N1 [Nitrofurantoin]
- Bliss interaction score [1]: -0.0345
- Bliss interaction score [2]: -0.0226
- Bliss interaction score [3]: -0.0292
- Bliss interaction score [4]: -0.186

SMILES: N[C@@H]1CONC1=O [CycloserineD] + Cc1cc(NS(=O)(=O)c2ccc(N)cc2)no1 [Sulfamethoxazol]
- Bliss interaction score [1]: -0.0418
- Bliss interaction score [2]: 0.0715
- Bliss interaction score [3]: 0.0449
- Bliss interaction score [4]: -0.188

SMILES: CC[C@H]1OC(=O)[C@H](C)[C@@H](O[C@H]2C[C@@](C)(OC)[C@@H](O)[C@H](C)O2)[C@H](C)[C@@H](O[C@@H]2O[C@H](C)C[C@H](N(C)C)[C@H]2O)[C@](C)(OC)C[C@@H](C)C(=O)[C@H](C)[C@@H](O)[C@]1(C)O [Clarithromycin] + CN(C)[C@@H]1C(O)=C(C(N)=O)C(=O)[C@@]2(O)C(O)=C3C(=O)c4c(O)ccc(Cl)c4[C@@](C)(O)[C@H]3C[C@@H]12 [Clortetracycline]
- Bliss interaction score [1]: -0.392
- Bliss interaction score [2]: -0.28
- Bliss interaction score [3]: -0.094
- Bliss interaction score [4]: 0.0391

SMILES: COc1c(N2C[C@@H]3CCCN[C@@H]3C2)c(F)cc2c(=O)c(C(=O)O)cn(C3CC3)c12 [Moxifloxacin] + Oc1cc(Cl)ccc1Oc1ccc(Cl)cc1Cl [Triclosan]
- Bliss interaction score [1]: 0.0151
- Bliss interaction score [2]: -0.0397
- Bliss interaction score [3]: -0.038
- Bliss interaction score [4]: 0.0747

SMILES: O=C(O[C@@H]1Cc2c(O)cc(O)cc2O[C@@H]1c1cc(O)c(O)c(O)c1)c1cc(O)c(O)c(O)c1 [EGCG] + CC[C@H]1OC(=O)[C@H](C)[C@@H](O[C@H]2C[C@@](C)(OC)[C@@H](O)[C@H](C)O2)[C@H](C)[C@@H](O[C@@H]2O[C@H](C)C[C@H](N(C)C)[C@H]2O)[C@](C)(O)C[C@@H](C)C(=O)[C@H](C)[C@@H](O)[C@]1(C)O [Erythromycin]
- Bliss interaction score [1]: 0.0527
- Bliss interaction score [2]: -0.0558
- Bliss interaction score [3]: -0.0582
- Bliss interaction score [4]: 0.0597

SMILES: N[C@@H]1CONC1=O [CycloserineD] + CN(N=O)C(=O)N[C@@H](C=O)[C@@H](O)[C@H](O)[C@H](O)CO [Streptozotocin]
- Bliss interaction score [1]: 0.0463
- Bliss interaction score [2]: -0.14
- Bliss interaction score [3]: -0.0611
- Bliss interaction score [4]: -0.16

SMILES: CC(=O)O[C@H]1C[C@@]2(C)[C@@H](C[C@@H](O)[C@H]3[C@@]4(C)CC[C@@H](O)[C@@H](C)[C@@H]4CC[C@@]32C)/C1=C(\CCC=C(C)C)C(=O)O [Fusidic acid] + CN[C@@H]1[C@H](O)[C@H](NC)[C@H]2O[C@@]3(O)C(=O)C[C@@H](C)O[C@H]3O[C@@H]2[C@H]1O [Spectinomycin]
- Bliss interaction score [1]: 0.0642
- Bliss interaction score [2]: 0.027
- Bliss interaction score [3]: -0.0448
- Bliss interaction score [4]: -0.0789

SMILES: CCC[C@@H]1C[C@@H](C(=O)N[C@@H]([C@H]2O[C@H](SC)[C@H](O)[C@@H](O)[C@H]2O)[C@@H](C)O)N(C)C1 [Lincomycin] + CC1(C)S[C@@H]2[C@H](NC(=O)Cc3ccccc3)C(=O)N2[C@H]1C(=O)O [PenicillinG]
- Bliss interaction score [1]: 0.0736
- Bliss interaction score [2]: 0.0494
- Bliss interaction score [3]: 0.0805
- Bliss interaction score [4]: 0.0998

SMILES: O=C(O[C@@H]1Cc2c(O)cc(O)cc2O[C@@H]1c1cc(O)c(O)c(O)c1)c1cc(O)c(O)c(O)c1 [EGCG] + CC1(C)S[C@@H]2[C@H](NC(=O)Cc3ccccc3)C(=O)N2[C@H]1C(=O)O [PenicillinG]
- Bliss interaction score [1]: 0.0517
- Bliss interaction score [2]: 0.059
- Bliss interaction score [3]: 0.0531
- Bliss interaction score [4]: 0.108

SMILES: N[C@@H]1CONC1=O [CycloserineD] + CC1(C)S[C@@H]2[C@H](NC(=O)Cc3ccccc3)C(=O)N2[C@H]1C(=O)O [PenicillinG]
- Bliss interaction score [1]: 0.116
- Bliss interaction score [2]: -0.0754
- Bliss interaction score [3]: 0.0553
- Bliss interaction score [4]: -0.221

SMILES: CC(=O)OC[C@H]1O[C@@H]([S-])[C@H](OC(C)=O)[C@@H](OC(C)=O)[C@@H]1OC(C)=O.CCP(CC)CC.[Au+] [Auranofin] + C[C@@H](O)[C@H]1C(=O)N2C(C(=O)O)=C(SCCNC=N)C[C@H]12 [Imipenem]
- Bliss interaction score [1]: -0.0439
- Bliss interaction score [2]: -0.0179
- Bliss interaction score [3]: 0.162
- Bliss interaction score [4]: -0.0587

SMILES: N[C@@H]1CONC1=O [CycloserineD] + O=C(O[C@@H]1Cc2c(O)cc(O)cc2O[C@@H]1c1cc(O)c(O)c(O)c1)c1cc(O)c(O)c(O)c1 [EGCG]
- Bliss interaction score [1]: -0.114
- Bliss interaction score [2]: -0.107
- Bliss interaction score [3]: 0.0286
- Bliss interaction score [4]: -0.0875

SMILES: N[C@@H]1CONC1=O [CycloserineD] + CN[C@H](CC(C)C)C(=O)N[C@H]1C(=O)N[C@@H](CC(N)=O)C(=O)N[C@H]2C(=O)N[C@H]3C(=O)N[C@H](C(=O)N[C@H](C(=O)O)c4cc(O)cc(O)c4-c4cc3ccc4O)[C@H](O[C@H]3C[C@](C)(N)[C@@H](O)[C@H](C)O3)c3ccc(c(Cl)c3)Oc3cc2cc(c3O[C@@H]2O[C@H](CO)[C@@H](O)[C@H](O)[C@H]2O[C@H]2C[C@](C)(NCc3ccc(-c4ccc(Cl)cc4)cc3)[C@@H](O)[C@H](C)O2)Oc2ccc(cc2Cl)[C@H]1O [Oritavancin]
- Bliss interaction score [1]: 0.0352
- Bliss interaction score [2]: -0.0757
- Bliss interaction score [3]: 0.0585
- Bliss interaction score [4]: 0.0458
